Structures are written as SMILES.

T1 sequence (P52702 whole entry): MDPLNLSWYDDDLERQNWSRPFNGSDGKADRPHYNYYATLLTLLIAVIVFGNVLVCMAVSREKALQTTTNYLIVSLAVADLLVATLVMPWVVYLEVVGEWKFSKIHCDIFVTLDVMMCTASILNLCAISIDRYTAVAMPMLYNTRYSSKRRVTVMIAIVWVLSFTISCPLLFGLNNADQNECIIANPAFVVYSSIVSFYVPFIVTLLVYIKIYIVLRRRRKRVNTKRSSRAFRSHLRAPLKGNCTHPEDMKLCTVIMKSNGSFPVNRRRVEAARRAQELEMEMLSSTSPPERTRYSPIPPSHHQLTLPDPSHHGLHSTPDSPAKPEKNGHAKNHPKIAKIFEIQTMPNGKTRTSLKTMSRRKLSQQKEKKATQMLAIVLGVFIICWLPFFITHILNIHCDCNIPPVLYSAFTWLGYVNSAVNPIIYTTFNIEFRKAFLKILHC

The assay concerns the target T1, D2 receptors (Chlorocebus aethiops, UniProt P52702).
T1 construct: expressed in transfected cells; host or cells: COS cells
Description: Assay for D2 receptor binding activity (3H-YM 09151-2 displacement, COS cell pellets). Details: species or system African Green monkey. The following applies: recombinant receptor in COS cells; 0.5 nM 3H-YM 09151-2. How it is done: Pellets of COS cells containing recombinantly produced D2 or D4 receptors from African Green monkey are used for the assays. The sample is homogenized in 100 volumes (w/vol) of 0.05 M Tris HCl buffer at 4° C and pH 7.4. The sample is then centrifuged at 30,000 x g and resuspended and rehomogenized. The sample is again centrifuged as described above and the final tissue sample is frozen until use. The tissue is resuspended 1:20 (wt/vol) in 0.05 M Tris HCl buffer containing 100 mM NaCl.
Incubations are carried out at […] and contain 0.4 ml of tissue sample, 0.5 nM ^3H-YM 09151-2 (Nemonapride, cis-5-Chloro-2-methoxy-4-(methylamino)-N-(2-methyl-2-(phenylmethyl)-3-pyrrolidinyl)benzamide)and the compound of interest in a total incubation of 1.0 ml. Nonspecific binding is defined as that binding found in the presence of […] spiperone; without further additions, nonspecific binding is less than 20% of total binding. Binding characteristics for examples of compounds encompassed within Formulae II, III and V for the D2 and D4 receptor subtypes are shown in Table 2 for […].
For the compound `Cc1ccc(CN2CCN(c3ccc4ccccc4n3)CC2)cc1` [Compound 2], the Ki (usually a measure of affinity in units of concentration, obtained from inhibition or displacement) is above 4 µM.

Consider `Clc1ccc(CN2CCN(c3cnc4ccccc4n3)CC2)cc1` [Compound 3], for which the Ki is above 4 µM. In the case of `Clc1ccc(CN2CCN(c3ccc4ccccc4c3)CC2)cc1` [Compound 6] it was above 4 µM.

For the origin of these results see patent EP1025097B1, “1-(2-NAPHTHYL) AND 1-(2-AZANAPHTHYL)-4-(1-PHENYLMETHYL)PIPERAZINES BEING DOPAMINE D 4? RECEPTOR SUBTYPE LIGANDS” (NEUROGEN CORPORATION, priority 1997, dated 1999).
